Test results taken from patent US9963462B2 (priority 2015, dated 2018).
Read-outs that look alike come from different tables or passages of the source.

Legend:
[1] = test system: BH4 levels in SK-N-BE (2) cells; test: SKN-N-BE (2) cellular assay, BH4 levels by LC-MS; assay type: cell-based
[2] = biological target: SNAP-hSPR (sepiapterin reductase, SPR) (Homo sapiens, UniProt P35270); test: biochemical; assay type: binding; settings: terbium labelled SNAP-hSPR / SSZ labelled SNAP-EGFP; read-out: hTR-FRET IC50
Chain of SNAP-hSPR (sepiapterin reductase, SPR) (P35270 whole entry): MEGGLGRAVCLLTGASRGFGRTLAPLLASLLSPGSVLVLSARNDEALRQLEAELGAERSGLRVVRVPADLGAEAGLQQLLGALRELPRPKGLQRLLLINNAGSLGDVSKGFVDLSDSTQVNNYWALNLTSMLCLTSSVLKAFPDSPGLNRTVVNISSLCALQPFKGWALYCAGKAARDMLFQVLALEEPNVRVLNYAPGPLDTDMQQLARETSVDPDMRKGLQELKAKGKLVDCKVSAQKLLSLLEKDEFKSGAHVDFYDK

[3] = Homo sapiens, SKNBE2, read-out: SK-N-BE(2) IC50, SK-N-BE (2) cells, BH4 levels by LC-MS

`O=C(c1cnn(-c2nn3cc(F)cc3c(=O)[nH]2)c1)N1CCC(C(F)(F)F)CC1` [Q-0616, 6-fluoro-2-(4-(4-(trifluoromethyl)piperidine-1-carbonyl)-1H-pyrazol-1-yl)pyrrolo[1,2-f][1,2,4]triazin-4(3H)-one] was tested, and the IC50 [1, 3] was 0.1 µM and the IC50 [2] was 0.002 µM.

Compound `Cc1c(C(=O)N2CC3CC3(O)C2)cnn1-c1nc2sccc2c(=O)[nH]1` (stereo not drawn) [Q-0617] has an IC50 [1, 3] of 3 µM and an IC50 [2] of 0.02 µM.

Compound `COC(=O)c1cnn(-c2nn3c(F)ccc3c(=O)[nH]2)c1C1CC1` [Q-0618] has an IC50 [1, 3] of 0.025 µM and an IC50 [2] of 0.001 µM.

`COC(=O)c1cnn(-c2nn3c(F)ccc3c(=O)[nH]2)c1C` [Q-0619] was tested, and the IC50 [1, 3] was 0.3 µM and the IC50 [2] was 0.003 µM.

`O=C(c1cnn(-c2nn3c(F)ccc3c(=O)[nH]2)c1C1CC1)N1CCC(C(F)(F)F)CC1` [Q-0620] gave an IC50 [1, 3] of 0.1 µM and an IC50 [2] of 0.001 µM.

In the case of `Cc1c(C(=O)N2CC3CC3(O)C2)cnn1-c1nc2ccsc2c(=O)[nH]1` (stereo not drawn) [Q-0621], the IC50 [1, 3] is reported as 5.2 µM and the IC50 [2] is reported as 0.02 µM.

`Cc1c(C(=O)N2CCC(C(F)(F)F)CC2)ccn1-c1nc2c(c(=O)[nH]1)CCC2` [Q-0622, 2-(2-methyl-3-(4-(trifluoromethyl)piperidine-1-carbonyl)-1H-pyrrol-1-yl)-6,7-dihydro-3H-cyclopenta[d]pyrimidin-4(5H)-one] showed an IC50 [1, 3] of 0.058 µM and an IC50 [2] of 0.001 µM.

Work on `CCC1(C#N)CCN(C(=O)c2cnn(-c3nn4c(F)ccc4c(=O)[nH]3)c2C)CC1` [Q-0623] yielded an IC50 [1, 3] of 0.078 µM and an IC50 [2] of 0.001 µM.

With `Cc1c(C(=O)N2CCC(c3c[nH]c4ccccc34)CC2)cnn1-c1nn2c(F)ccc2c(=O)[nH]1` [Q-0624] the IC50 [1, 3] was 0.032 µM and the IC50 [2] was 0.002 µM.

`CCC(C#N)(CC)C1CCN(C(=O)c2cnn(-c3nc4c(c(=O)[nH]3)CCC4)c2C)CC1` [Q-0626] was tested, and the IC50 [1, 3] was 0.014 µM and the IC50 [2] was 0.001 µM.

`Cc1c(C(=O)N2CCN(C(=O)C34CC(C(=O)O)(C3)C4)CC2)cnn1-c1nc2c(c(=O)[nH]1)CCC2` [Q-0627, 3-(4-(5-methyl-1-(4-oxo-4,5,6,7-tetrahydro-3H-cyclopenta[d]pyrimidin-2-yl)-1H-pyrazole-4-carbonyl)piperazine-1-carbonyl)bicyclo[1.1.1]pentane-1-carboxylic acid] gave an IC50 [1, 3] of 10 µM and an IC50 [2] of 0.009 µM.

For `Cc1c(C(=O)N2CCN(C(=O)C34CC(C(N)=O)(C3)C4)CC2)cnn1-c1nc2c(c(=O)[nH]1)CCC2` [Q-0630], the IC50 [1, 3] was 10 µM and the IC50 [2] was 0.009 µM.

Compound `Cc1c(C(=O)N2CCN(C(=O)C34CC(C#N)(C3)C4)CC2)cnn1-c1nc2c(c(=O)[nH]1)CCC2` [Q-0632, 3-(4-(5-methyl-1-(4-oxo-4,5,6,7-tetrahydro-3H-cyclopenta[d]pyrimidin-2-yl)-1H-pyrazole-4-carbonyl)piperazine-1-carbonyl)bicyclo[1.1.1]pentane-1-carbonitrile] has an IC50 [1, 3] of 7.3 µM and an IC50 [2] of 0.004 µM.

`Cc1c(C(=O)N2CCCCC2)cnn1-c1nc2c(c(=O)[nH]1)CCC2` [Q-0633] was tested, and the IC50 [1, 3] was 0.4 µM and the IC50 [2] was 0.005 µM.

Work on `Cc1c(C(=O)N2CCCCC2)cnn1-c1nn2cccc2c(=O)[nH]1` [Q-0634] yielded an IC50 [1, 3] of 0.7 µM and an IC50 [2] of 0.003 µM.

With `Cc1c(C(=O)N2CCC3(CC2)CC3)cnn1-c1nn2cccc2c(=O)[nH]1` [Q-0681] the IC50 [1, 3] was 0.2 µM and the IC50 [2] was 0.001 µM.

`Cc1c(C(=O)N2CCC3(CC2)CC(F)(F)C3)cnn1-c1nc2c(c(=O)[nH]1)CCC2` [Q-0691] was tested, and the IC50 [1, 3] was 0.091 µM and the IC50 [2] was 0.002 µM.

Work on `Cc1c(C(=O)N2CCC3(CC2)CC3c2nnc(-c3ccccc3)o2)cnn1-c1nn2cccc2c(=O)[nH]1` (stereo not drawn) [Q-0696] yielded an IC50 [1, 3] of 0.4 µM and an IC50 [2] of 0.004 µM.

`Cc1c(C(=O)N2CCC3(CC2)CC3c2nnc(-c3ccccc3)o2)cnn1-c1nc2c(c(=O)[nH]1)CCC2` (stereo not drawn) [Q-0697] showed an IC50 [1, 3] of 0.2 µM and an IC50 [2] of 0.004 µM.

`Cc1c(C(=O)N2CCC(C3CC3)CC2)cnn1-c1nc2ccsc2c(=O)[nH]1` [Q-0698] was tested, and the IC50 [1, 3] was 0.071 µM and the IC50 [2] was 0.001 µM.

`Cc1c(C(=O)N2CCC(C3CC3)CC2)cnn1-c1nc2sccc2c(=O)[nH]1` [Q-0700] was tested, and the IC50 [1, 3] was 0.1 µM and the IC50 [2] was 0.002 µM.

With `Cc1c(C(=O)N2CCC(C(O)(C(F)(F)F)C(F)(F)F)CC2)cnn1-c1nc2c(c(=O)[nH]1)CCC2` [Q-0701] the IC50 ([1]; read-out: SK-N-BE(2) IC50, SK-N-BE (2) cells, BH4 levels by LC-MS) was 0.082 µM and the IC50 [2] was 0.002 µM.

With `O=C(c1cnn(-c2nc3c(c(=O)[nH]2)CCC3)c1)N1CCC(c2c[nH]c3ccccc23)CC1` [Q-0702] the IC50 [1, 3] was 0.032 µM and the IC50 [2] was 0.002 µM.

`Cc1c(C(=O)N2CCC(CC(F)(F)F)CC2)cnn1-c1nc2ccsc2c(=O)[nH]1` [Q-0704] gave an IC50 [1, 3] of 0.2 µM and an IC50 [2] of 0.002 µM.

Compound `O=C(c1cnn(-c2nc3c(c(=O)[nH]2)CCC3)c1)N1CCC2(CC1)CC2` [Q-0705] has an IC50 [1, 3] of 0.043 µM and an IC50 [2] of 0.002 µM.

`O=C(c1cnn(-c2nc3c(c(=O)[nH]2)CCC3)c1)N1CCC(C2CC2)CC1` [Q-0706] gave an IC50 [1, 3] of 0.03 µM and an IC50 [2] of 0.002 µM.

In the case of `O=C(c1cnn(-c2nc3c(c(=O)[nH]2)CCC3)c1)N1CCC(c2nc3cc(F)ccc3s2)CC1` [Q-0707], the IC50 [1, 3] is reported as 0.3 µM and the IC50 [2] is reported as 0.005 µM.

With `O=C(c1cnn(-c2nn3cccc3c(=O)[nH]2)c1)N1CCC2(CC1)CC2` [Q-0708] the IC50 [1, 3] was 0.097 µM and the IC50 [2] was 0.001 µM.

In the case of `O=C(c1cnn(-c2nn3cccc3c(=O)[nH]2)c1)N1CCC(C2CC2)CC1` [Q-0709], the IC50 [1, 3] is reported as 0.028 µM and the IC50 [2] is reported as 0.001 µM.

Compound `CC(C)(C#N)C1CCN(C(=O)c2cnn(-c3nc4c(c(=O)[nH]3)CCC4)c2)CC1` [Q-0710] has an IC50 [1, 3] of 0.2 µM and an IC50 [2] of 0.002 µM.
